Reference: paper PMC5218480 (PLoS ONE, 2017)

System: MV-4-11 cells
Assay: Gene expression microarray analysis (Affymetrix PrimeView) and GSEA
Type: cell-based, human
Set-up: RFU PODN (11730768_x_at) / Fold change /veh PODN (11730768_x_at) / RFU LINC00158 (11744669_a_at) / Fold change /veh LINC00158 (11744669_a_at) / RFU DUSP10 (11751237_a_at) / Fold change /veh DUSP10 (11751237_a_at) / RFU ID3 (11757404_x_at) / Fold change /veh ID3 (11757404_x_at) / RFU PLEKHG5 (11737974_s_at) / Fold change /veh PLEKHG5 (11737974_s_at) / RFU LRRC4B (11730491_at) / Fold change /veh LRRC4B (11730491_at) / RFU GIMAP4 (11747438_a_at) / Fold change /veh GIMAP4 (11747438_a_at) / RFU KRT8 (11758183_x_at) / Fold change /veh KRT8 (11758183_x_at) / RFU CNN1 (11734310_a_at) / Fold change /veh CNN1 (11734310_a_at) / RFU VPS37D (11726825_at) / Fold change /veh VPS37D (11726825_at) / RFU C10orf10 (11716522_x_at) / Fold change /veh C10orf10 (11716522_x_at) / RFU KIR2DL2 /// KIR2DL4 /// KIR2DL5A /// KIR2DL5B /// KIR2DS1 /// KIR2DS2 /// KIR2DS3 /// KIR2DS4 /// KIR3DL3 /// KIR3DL3 /// KIR3DS1 (11738374_at) / Fold change /veh KIR2DL2 /// KIR2DL4 /// KIR2DL5A /// KIR2DL5B /// KIR2DS1 /// KIR2DS2 /// KIR2DS3 /// KIR2DS4 /// KIR3DL3 /// KIR3DL3 /// KIR3DS1 (11738374_at) / RFU C1QL1 (11718748_at) / Fold change /veh C1QL1 (11718748_at) / RFU TMPRSS4 (11747572_a_at) / Fold change /veh TMPRSS4 (11747572_a_at) / RFU HAMP (11756126_x_at) / Fold change /veh HAMP (11756126_x_at) / RFU RNFT2 (11725882_a_at) / Fold change /veh RNFT2 (11725882_a_at) / RFU NR4A2 (11747474_a_at) / Fold change /veh NR4A2 (11747474_a_at) / RFU ABCC12 (11746883_a_at) / Fold change /veh ABCC12 (11746883_a_at) / RFU TMEM136 (11760407_x_at) / Fold change /veh TMEM136 (11760407_x_at) / RFU CLDN22 /// WWC2 (11732394_at) / Fold change /veh CLDN22 /// WWC2 (11732394_at) / RFU HLA-DPB1 (11760878_x_at) / Fold change /veh HLA-DPB1 (11760878_x_at) / RFU SPINT1 (11716480_a_at) / Fold change /veh SPINT1 (11716480_a_at) / RFU GAP43 (11754022_s_at) / Fold change /veh GAP43 (11754022_s_at) / RFU A4GNT (11735810_at) / Fold change /veh A4GNT (11735810_at) / RFU PRB3 (11715151_x_at) / Fold change /veh PRB3 (11715151_x_at) / RFU TUBB4B (11761932_at) / Fold change /veh TUBB4B (11761932_at) / RFU CAPN14 (11732068_a_at) / Fold change /veh CAPN14 (11732068_a_at) / RFU TMCC2 (11721928_a_at) / Fold change /veh TMCC2 (11721928_a_at) / RFU IRGQ (11745062_a_at) / Fold change /veh IRGQ (11745062_a_at) / RFU FAM174B (11720279_a_at) / Fold change /veh FAM174B (11720279_a_at) / RFU TMPRSS4 (11748680_a_at) / Fold change /veh TMPRSS4 (11748680_a_at) / RFU FAM212B (11763350_a_at) / Fold change /veh FAM212B (11763350_a_at) / RFU PLEKHG5 (11743358_a_at) / Fold change /veh PLEKHG5 (11743358_a_at) / RFU ZSCAN30 (11745921_a_at) / Fold change /veh ZSCAN30 (11745921_a_at) / RFU CMKLR1 (11741424_a_at) / Fold change /veh CMKLR1 (11741424_a_at) / RFU LOC101060620 /// MAPK8IP1 (11723275_at) / Fold change /veh LOC101060620 /// MAPK8IP1 (11723275_at) / RFU SPTSSB (11747773_x_at) / Fold change /veh SPTSSB (11747773_x_at) / RFU PRSS12 (11739890_at) / Fold change /veh PRSS12 (11739890_at) / RFU BIN1 (11741810_x_at) / Fold change /veh BIN1 (11741810_x_at) / RFU WNT11 (11732464_a_at) / Fold change /veh WNT11 (11732464_a_at) / RFU C10orf10 (11716521_a_at) / Fold change /veh C10orf10 (11716521_a_at) / RFU C5orf56 (11738089_at) / Fold change /veh C5orf56 (11738089_at) / RFU CYB561 (11721691_x_at) / Fold change /veh CYB561 (11721691_x_at) / RFU ANKRD19P (11752326_a_at) / Fold change /veh ANKRD19P (11752326_a_at) / RFU OR2T12 /// OR2T33 /// OR2T8 (11738714_s_at) / Fold change /veh OR2T12 /// OR2T33 /// OR2T8 (11738714_s_at) / RFU VCAN (11748164_a_at) / Fold change /veh VCAN (11748164_a_at) / RFU JSRP1 (11732532_at) / Fold change /veh JSRP1 (11732532_at) / RFU KRTAP10-11 (11738290_x_at) / Fold change /veh KRTAP10-11 (11738290_x_at) / RFU MYO3A (11730013_a_at) / Fold change /veh MYO3A (11730013_a_at) / RFU EBF3 (11725865_a_at) / Fold change /veh EBF3 (11725865_a_at) / RFU CAMK2N1 (11719241_x_at) / Fold change /veh CAMK2N1 (11719241_x_at) / RFU C5orf56 (11738088_a_at) / Fold change /veh C5orf56 (11738088_a_at) / RFU OLFML3 (11715873_a_at) / Fold change /veh OLFML3 (11715873_a_at) / RFU LOC100653217 /// NTM (11731650_a_at) / Fold change /veh LOC100653217 /// NTM (11731650_a_at) / RFU MAPK11 (11762145_a_at) / Fold change /veh MAPK11 (11762145_a_at) / RFU FIZ1 (11724087_x_at) / Fold change /veh FIZ1 (11724087_x_at) / RFU OASL (11726364_x_at) / Fold change /veh OASL (11726364_x_at) / RFU SOX15 (11748057_x_at) / Fold change /veh SOX15 (11748057_x_at) / RFU CD79A (11719716_a_at) / Fold change /veh CD79A (11719716_a_at) / RFU HIST1H1D (11736915_at) / Fold change /veh HIST1H1D (11736915_at) / RFU CASKIN2 (11723855_a_at) / Fold change /veh CASKIN2 (11723855_a_at) / RFU LOC730098 (11760151_x_at) / Fold change /veh LOC730098 (11760151_x_at) / RFU OR4N2 (11742367_at) / Fold change /veh OR4N2 (11742367_at) / RFU PRRT2 (11749266_a_at) / Fold change /veh PRRT2 (11749266_a_at) / RFU SNX32 (11753110_a_at) / Fold change /veh SNX32 (11753110_a_at) / RFU CDHR5 (11726645_a_at) / Fold change /veh CDHR5 (11726645_a_at) / RFU RCAN1 (11760418_a_at) / Fold change /veh RCAN1 (11760418_a_at) / RFU FAM167A (11723789_a_at) / Fold change /veh FAM167A (11723789_a_at) / RFU FAM26E (11764081_at) / Fold change /veh FAM26E (11764081_at) / RFU ISYNA1 (11749810_s_at) / Fold change /veh ISYNA1 (11749810_s_at) / RFU ACY1 (11761880_at) / Fold change /veh ACY1 (11761880_at) / RFU 11764098_at / Fold change /veh 11764098_at / RFU SAMD14 (11745864_x_at) / Fold change /veh SAMD14 (11745864_x_at) / RFU NPB (11741838_a_at) / Fold change /veh NPB (11741838_a_at) / RFU TMPRSS6 (11731388_a_at) / Fold change /veh TMPRSS6 (11731388_a_at) / RFU KRTAP10-2 (11738614_at) / Fold change /veh KRTAP10-2 (11738614_at) / RFU ARHGAP8 /// PRR5-ARHGAP8 (11727945_x_at) / Fold change /veh ARHGAP8 /// PRR5-ARHGAP8 (11727945_x_at) / RFU KRTAP5-7 /// NADSYN1 (11734609_at) / Fold change /veh KRTAP5-7 /// NADSYN1 (11734609_at) / RFU RASL12 (11751679_a_at) / Fold change /veh RASL12 (11751679_a_at) / RFU CDKN2B (11736163_a_at) / Fold change /veh CDKN2B (11736163_a_at) / RFU PRF1 (11729649_at) / Fold change /veh PRF1 (11729649_at) / RFU, ZNF638 /// ZNF638-IT1 / Fold change vs veh, ZNF638 /// ZNF638-IT1 / RFU, PANK3 / Fold change vs veh, PANK3 / RFU, SH3YL1 / Fold change vs veh, SH3YL1 / RFU, ZEB2 / Fold change vs veh, ZEB2 / RFU, NRIP1 / Fold change vs veh, NRIP1 / RFU, PTTG1IP / Fold change vs veh, PTTG1IP / RFU, CAPN2 / Fold change vs veh, CAPN2 / RFU, MED14 / Fold change vs veh, MED14 / RFU, SNORA58 / Fold change vs veh, SNORA58 / RFU, C1orf63 / Fold change vs veh, C1orf63 / RFU, LRRFIP1 / Fold change vs veh, LRRFIP1 / RFU, NDUFAF7 / Fold change vs veh, NDUFAF7 / RFU, SLC12A2 / Fold change vs veh, SLC12A2 / RFU, IBTK / Fold change vs veh, IBTK / RFU, ESF1 / Fold change vs veh, ESF1 / Fold change vs veh, TMEM50B / RFU, TAOK1 / Fold change vs veh, TAOK1 / RFU, ACBD3 / Fold change vs veh, ACBD3 / RFU, TMA16 / Fold change vs veh, TMA16 / RFU, RWDD3 / Fold change vs veh, RWDD3 / RFU, BCAT1 / Fold change vs veh, BCAT1 / RFU, EDEM3 / Fold change vs veh, EDEM3 / RFU, TMEM33 / Fold change vs veh, TMEM33 / RFU, WDR75 / Fold change vs veh, WDR75 / RFU, AHCTF1 / Fold change vs veh, AHCTF1 / RFU, TFRC / Fold change vs veh, TFRC / RFU, ZDHHC17 / Fold change vs veh, ZDHHC17 / RFU, NOM1 / Fold change vs veh, NOM1 / RFU, ARL8B / Fold change vs veh, ARL8B / RFU, ZBTB11 / Fold change vs veh, ZBTB11 / RFU, TAMM41 / Fold change vs veh, TAMM41 / RFU, KIAA1704 /// LOC100996395 / Fold change vs veh, KIAA1704 /// LOC100996395 / RFU, ING1 / Fold change vs veh, ING1 / RFU, TRMT61B / Fold change vs veh, TRMT61B / RFU, FUBP3 / Fold change vs veh, FUBP3 / RFU, TP53 / Fold change vs veh, TP53 / RFU, TNKS2 / Fold change vs veh, TNKS2 / RFU, ZFP14 / Fold change vs veh, ZFP14 / RFU, ACTR2 / Fold change vs veh, ACTR2 / RFU, PPP3R1 / Fold change vs veh, PPP3R1 / RFU, PIK3R1 / Fold change vs veh, PIK3R1 / RFU, HNRNPA1 / Fold change vs veh, HNRNPA1 / RFU, RNF170 / Fold change vs veh, RNF170 / RFU, ZNF28 / Fold change vs veh, ZNF28 / RFU, RNGTT / Fold change vs veh, RNGTT / RFU, OGT / Fold change vs veh, OGT / RFU, BRD1 / Fold change vs veh, BRD1 / RFU, MARS / Fold change vs veh, MARS / RFU, ZNF655 / Fold change vs veh, ZNF655 / RFU, FAHD1 / Fold change vs veh, FAHD1 / RFU, BDP1 / Fold change vs veh, BDP1 / RFU, LRRCC1 / Fold change vs veh, LRRCC1 / RFU, ARID1A / Fold change vs veh, ARID1A / RFU, ZNF146 / Fold change vs veh, ZNF146 / RFU, ZNF330 / Fold change vs veh, ZNF330 / RFU, GPN3 / Fold change vs veh, GPN3 / RFU, C9orf123 / Fold change vs veh, C9orf123 / RFU, N4BP2L2 / Fold change vs veh, N4BP2L2 / RFU, ARFIP1 / Fold change vs veh, ARFIP1 / RFU, FAM179B / Fold change vs veh, FAM179B / RFU, BCL10 / Fold change vs veh, BCL10 / RFU, UHRF1BP1L / Fold change vs veh, UHRF1BP1L / RFU, BET1 / Fold change vs veh, BET1 / RFU, CNOT2 / Fold change vs veh, CNOT2 / RFU, ZNF268 / Fold change vs veh, ZNF268 / Fold change vs veh, ZNF507 / RFU, DGCR2 / Fold change vs veh, DGCR2 / RFU, WDSUB1 / Fold change vs veh, WDSUB1 / Fold change vs veh, HSP90B1 /// MIR3652 / RFU, ADSS / Fold change vs veh, ADSS / RFU, GK / Fold change vs veh, GK / RFU, ZNF148 / Fold change vs veh, ZNF148 / RFU, TAF9 / Fold change vs veh, TAF9 / RFU, SLC1A5 / Fold change vs veh, SLC1A5 / RFU, SLMO2 / Fold change vs veh, SLMO2 / RFU, ABCC4 / Fold change vs veh, ABCC4 / RFU, LOC101060439 /// RAP1B / Fold change vs veh, LOC101060439 /// RAP1B / RFU, RFX7 / Fold change vs veh, RFX7 / RFU, GTPBP10 / Fold change vs veh, GTPBP10 / RFU, CNEP1R1 / Fold change vs veh, CNEP1R1 / RFU, BIVM-ERCC5 /// ERCC5 / Fold change vs veh, BIVM-ERCC5 /// ERCC5 / RFU, ILF3 / Fold change vs veh, ILF3 / RFU 11762660_at / Fold change /veh 11762660_at / RFU VCAN (11757783_s_at) / Fold change /veh VCAN (11757783_s_at) / RFU DDX43 (11728927_at) / Fold change /veh DDX43 (11728927_at) / RFU KRT8 (11758188_x_at) / Fold change /veh KRT8 (11758188_x_at) / RFU NKD1 (11759106_at) / Fold change /veh NKD1 (11759106_at) / RFU SRD5A1 (11742802_a_at) / Fold change /veh SRD5A1 (11742802_a_at) / RFU TPSAB1 /// TPSB2 (11721975_s_at) / Fold change /veh TPSAB1 /// TPSB2 (11721975_s_at) / RFU GSTM3 (11746129_a_at) / Fold change /veh GSTM3 (11746129_a_at) / RFU IL23R (11737362_x_at) / Fold change /veh IL23R (11737362_x_at) / RFU TMEM51 (11727254_a_at) / Fold change /veh TMEM51 (11727254_a_at) / RFU PIWIL2 (11732686_x_at) / Fold change /veh PIWIL2 (11732686_x_at) / RFU ORM1 (11744905_x_at) / Fold change /veh ORM1 (11744905_x_at) / RFU CCDC152 (11743942_at) / Fold change /veh CCDC152 (11743942_at) / RFU ECM1 (11717891_a_at) / Fold change /veh ECM1 (11717891_a_at) / RFU IL23R (11748794_a_at) / Fold change /veh IL23R (11748794_a_at) / RFU TNFAIP8L3 (11732012_x_at) / Fold change /veh TNFAIP8L3 (11732012_x_at) / RFU MBOAT4 (11741988_at) / Fold change /veh MBOAT4 (11741988_at) / RFU 11764193_at / Fold change /veh 11764193_at / RFU TMEM53 (11763286_at) / Fold change /veh TMEM53 (11763286_at) / RFU MAGEB2 (11727129_at) / Fold change /veh MAGEB2 (11727129_at) / RFU TMEM200A (11744735_a_at) / Fold change /veh TMEM200A (11744735_a_at) / RFU CCDC152 (11751479_a_at) / Fold change /veh CCDC152 (11751479_a_at) / RFU FAM211A (11726209_a_at) / Fold change /veh FAM211A (11726209_a_at) / RFU RGS16 (11746705_a_at) / Fold change /veh RGS16 (11746705_a_at) / RFU VCAN (11755009_s_at) / Fold change /veh VCAN (11755009_s_at) / RFU RHOB (11743442_s_at) / Fold change /veh RHOB (11743442_s_at) / RFU RGS16 (11720943_a_at) / Fold change /veh RGS16 (11720943_a_at) / RFU RGS16 (11720944_at) / Fold change /veh RGS16 (11720944_at) / RFU, VPS4B / Fold change vs veh, VPS4B / RFU, CREB1 / Fold change vs veh, CREB1 / RFU, DNAJC13 / Fold change vs veh, DNAJC13 / RFU, GNAQ / Fold change vs veh, GNAQ / RFU, CDK5R1 / Fold change vs veh, CDK5R1 / RFU, ZRANB3 / Fold change vs veh, ZRANB3 / RFU, CUL4A / Fold change vs veh, CUL4A / RFU, CCNY / Fold change vs veh, CCNY / RFU, UFL1 / Fold change vs veh, UFL1 / RFU, COG3 / Fold change vs veh, COG3 / RFU, DIAPH2 / Fold change vs veh, DIAPH2 / RFU, SKA2 / Fold change vs veh, SKA2 / RFU, AFF3 / Fold change vs veh, AFF3 / RFU, LMF1 / Fold change vs veh, LMF1 / RFU, IPO11 / Fold change vs veh, IPO11 / RFU, DFFB / Fold change vs veh, DFFB / RFU, FOXP1 / Fold change vs veh, FOXP1 / RFU, CARD8 / Fold change vs veh, CARD8 / RFU, STRN3 / Fold change vs veh, STRN3 / RFU, ADK / Fold change vs veh, ADK / RFU, RASSF2 / Fold change vs veh, RASSF2 / RFU, WIPF1 / Fold change vs veh, WIPF1 / RFU, LARP1B / Fold change vs veh, LARP1B / RFU, RASA1 / Fold change vs veh, RASA1 / RFU, RB1 / Fold change vs veh, RB1 / RFU, PPFIA1 / Fold change vs veh, PPFIA1 / RFU, MAT2A / Fold change vs veh, MAT2A / RFU, CCT5 / Fold change vs veh, CCT5 / RFU, WDR92 / Fold change vs veh, WDR92 / RFU, CUX1 / Fold change vs veh, CUX1 / RFU, TTC7A / Fold change vs veh, TTC7A / RFU, TMEM135 / Fold change vs veh, TMEM135 / RFU, DEPTOR / Fold change vs veh, DEPTOR / RFU, CPM / Fold change vs veh, CPM / RFU, DNAJB6 / Fold change vs veh, DNAJB6 / RFU, CACNA2D3 / Fold change vs veh, CACNA2D3 / RFU, DTX4 / Fold change vs veh, DTX4 / RFU, TFCP2 / Fold change vs veh, TFCP2 / RFU, GMCL1 /// GMCL1P1 / Fold change vs veh, GMCL1 /// GMCL1P1 / RFU, AEBP2 / Fold change vs veh, AEBP2 / RFU, SNHG1 /// SNORD22 /// SNORD25 /// SNORD26 /// SNORD27 /// SNORD28 /// SNORD29 /// SNORD31 / Fold change vs veh, SNHG1 /// SNORD22 /// SNORD25 /// SNORD26 /// SNORD27 /// SNORD28 /// SNORD29 /// SNORD31 / Fold change (Aza/veh), C12orf56 (ProbeSet 11735607_a_at) / Fold change (ACY-1035/veh), C12orf56 (ProbeSet 11735607_a_at) / Fold change (Aza/veh), FGFR1OP (ProbeSet 11751329_s_at) / Fold change (ACY-1035/veh), FGFR1OP (ProbeSet 11751329_s_at) / Fold change (Aza/veh), VPS36 (ProbeSet 11739960_a_at) / Fold change (ACY-1035/veh), VPS36 (ProbeSet 11739960_a_at) / RFU SYPL1 (11715823_x_at) / Fold change /veh SYPL1 (11715823_x_at) / RFU IGFBP7 (11715501_s_at) / Fold change /veh IGFBP7 (11715501_s_at) / RFU REEP3 (11722064_at) / Fold change /veh REEP3 (11722064_at) / RFU IGLL1 (11728026_x_at) / Fold change /veh IGLL1 (11728026_x_at): dose or concentration left out as unconfirmed
Conditions: ProbeSet 11725787_a_at; LIST B

In the case of `Nc1ncn([C@@H]2O[C@H](CO)[C@@H](O)[C@H]2O)c(=O)n1` [azacitidine], the “Fold change vs veh, TMA16” value was 0.94.
